Assay results from patent US8470776B2, “Conjugates of disorazoles and their derivatives with cell-binding molecules, novel disorazole derivatives, processes of manufacturing and uses thereof” (Aeterna Zentaris GmbH, priority 2006, dated 2013).
Converted amounts (≈) assume the structure as drawn. “And” between values parts separate entries of the source, which are not always exact repeats. Identical values can stand only once.

How the values were obtained:
[1] = tested on: lung carcinoma cell line NCI-H460; assay: cells; assay type: cell-based, human; conditions: XTT, 45 h incubation
From the text: (§1) Selected compounds of the invention were investigated for their antiproliferative activity in a proliferation test on established tumor cell lines.
(§2) The test used determines the cellular dehydrogenase activity and makes possible a determination of the cell vitality and indirectly the cell count.
(§3) The cell lines used are the human cervical carcinoma cell line KB/HeLa (ATCC CCL17), the ovarian adenocarcinoma cell line SKOV-3 (ATCC HTB77), the human glioblastoma cell line SF-268 (NCI-503138) and the lung carcinoma cell line NCI-H460 (NCI-503473). In addition, for the investigation of the cell cycle-specific action of the compounds of the invention, an RKOp27 cell system was used (Schmidt M et al. Oncogene 2000, 19(20): 2423-2429). RKO is a human colon carcinoma cell line (ATCC CRL-2577), in which the cell cycle inhibitor p27^kip1 induced by means of the ecdysone expression system is expressed and can be led to a cell cycle arrest specifically in […]. A nonspecifically acting substance inhibits the proliferation independently of whether the RKO cell is or is not arrested in G1 or G2. Cell cycle-specific substances such as, for example, tubulin inhibitors are, however, only cytotoxic if cells are not arrested and the cell cycle is passed through.
(§4) The adherently growing tumor cell lines KB/HeLa, SKOV-3, SF-268 and NCI-H460 were cultured under standard conditions in an incubator at 37° C., 5% CO2 and 95% atmospheric humidity. On experimental day 1, the cells are detached using trypsin/EDTA and pelleted by centrifugation. Subsequently, the cell pellet is resuspended in the respective culture medium at the corresponding cell count and reacted in a 96-well microtiter plate. The plates are then cultured overnight in the incubator. The test substances are prepared as 1 mg/ml stock solutions in DMSO and diluted to the appropriate concentrations on experimental day 2 using culture medium. The substances in culture medium are then added to the cells and incubated in the incubator for 45 h. As a control, cells which are not treated with test substance are used. For the XTT assay, 1 mg/ml of XTT (sodium 3′-[1-(phenylaminocarbonyl)-3,4-tetrazolium]-bis(4-methoxy-6-nitro)benzenesulfonic acid) is dissolved in RPMI-1640 medium without Phenol Red. Additionally, a 0.383 mg/ml PMS (N-methyldibenzopyrazine methylsulfate) solution in phosphate-buffered saline solution (PBS) is prepared. On experimental day 4, 75 μl/well of XTT-PMS mixture is pipetted onto the cell plates which in the meantime have been incubated with the test substances for 45 h. For this, shortly before use, the XTT solution is mixed with the PMS solution in the ratio 50:1 (vol:vol). The cell plates are then incubated in the incubator for a further 3 h and the optical density (OD490 nm) is determined in a photometer. By means of the OD490 nm determined, the percentage inhibition is calculated relative to the control and plotted semilogarithmically in the form of a concentration-action curve. The IC50 is calculated by means of a regression analysis from the concentration-action curve using the program Graphpad Prism.

[2] = tested on: ovarian adenocarcinoma cell line SKOV-3; assay: cells; assay type: cell-based, human; conditions: XTT, 45 h incubation
From the text: as §1, §2, §3, §4

[3] = tested on: RKOp27 cells (human colon carcinoma cell line RKO), p27kip1 not induced; assay: cells; assay type: cell-based; conditions: without expression of p27kip1, XTT, 45 h
From the text: as §3, §4
(§5) The assay is carried out in 96-well plates. […] By comparison of the activity on induced and noninduced cells, conclusions on the mechanism of action (cell cycle specificity) of the therapeutics can be drawn. […] cells are inoculated in approximately three-fold higher cell count, since division no longer takes place during the assay in comparison with uninduced cells (20000 cells/well induced, 6250 cells/well not induced). The controls are untreated cells (+/−induction). The induction is carried out with 3 μM muristerone A. On the 1st day, the cells are exposed (+/−muristerone A) and incubated at 37° C. for 24 h. On day 2, the test substance is added (control DMSO) and incubation is continued at 37° C. for a further 45 h before a standard XTT assay is carried out.

[4] = tested on: RKOp27 cells (human colon carcinoma cell line RKO), p27kip1 induced; assay: cells; assay type: cell-based; conditions: p27kip1 induced with 3 μM muristerone A, XTT, 45 h
From the text: as §3, §4, §5

[5] = tested on: human cervical carcinoma cell line KB/HeLa; assay: cells; assay type: cell-based; conditions: XTT, 45 h incubation
From the text: as §1, §2, §3, §4

[6] = tested on: human glioblastoma cell line SF-268; assay: cells; assay type: cell-based; conditions: XTT, 45 h incubation
From the text: as §1, §2, §3, §4

[7] = tested on: human GnRH receptor (hGnRH-R) positive cell line 5C6; assay: GnRH-receptor dependent proliferation assay, 5C6; assay type: cell-based; conditions: 30 min exposure, vital cells vs untreated control = 100%
Description: (§6) The dose-dependent receptor-mediated inhibition of cell proliferation of selected compounds of the invention was investigated.
(§7) To study these effects a human GnRH receptor (hGnRH-R) positive cell line (5C6; Beckers et al., Eur. J. Biochem. 1995, 231: 535-543) and an hGnRH-R negative cell line (LTK^−; ECACC No. 85011432) was used.
(§8) Respective cells were exposed to 1 mL culture medium in 24 well multi-titer-plates (MTPs) with a cell number of 15000 cells per well. The cell number is adjusted in such a way that after 5 days of testing the untreated control cells are still in the exponential growth phase.
(§9) Test compounds are given to the cultured cells after 4 hours of initial growth (adherence) in a volume of 100 μL to yield the final concentrations given in table 2.
(§10) After 30 min of incubation at 37° C. the entire culture medium is sucked off and the cells are washed twice with culture medium without test compounds. After the washing the cells are placed into an incubator (at 37° C., 5% CO2 and 95% atmospheric humidity) and incubated for further 4 days.
(§11) For the determination of the cell number after incubation the cells are detached using trypsin/EDTA and centrifuged. The number of vital cells and the total cell number are counted using a Vi-Cell Analyzer (Beckman Coulter).
(§12) The number of vital cells is analyzed in comparison with untreated control cells (=100%). Only cell groups (respective wells) are considered of which the total cell viability is more than 90%, i.e. inhibition of cell proliferation by unspecific toxicity can be excluded.
(§13) The proliferation status of untreated control cells after 96 hours is set to 100%.

[8] = tested on: hGnRH-R negative cell line LTK−; assay: GnRH-receptor dependent proliferation assay, LTK-; assay type: cell-based; conditions: 30 min exposure, vital cells vs untreated control = 100%
Description: as §6, §7, §8, §9, §10, §11, §12, §13

Row | Molecule | IC50 ([1]; Homo sapiens, NCI-H460, read-out: IC50 NCI-H460) [µg/mL] | IC50 ([2]; Homo sapiens, SK-OV-3, read-out: IC50 SKOV-3) [µg/mL] | IC50 ([3]; Homo sapiens, RKOp27, read-out: IC50 RKOp27) [µg/mL] | IC50 ([4]; Homo sapiens, RKOp27, read-out: IC50 RKOp27 induced) [µg/mL] | IC50 ([5]; Homo sapiens, HeLa, read-out: IC50 KB/HELA) [µg/mL] | IC50 ([6]; Homo sapiens, SF-268, read-out: IC50 SF-268) [µg/mL] | IC50 NCI-H460 [1] [µg/mL] | IC50 SKOV-3 [2] [µg/mL] | proliferation status after 96 hours, cell line 5C6, 0.1 nM [7] [%] | proliferation status after 96 hours, cell line 5C6, 1 nM [7] [%] | proliferation status after 96 hours, cell line 5C6, 10 nM [7] [%] | proliferation status after 96 hours, cell line 5C6, 100 nM [7] | IC50 RKOp27 [3] | IC50 RKOp27 induced [4] [µg/mL] | proliferation status after 96 hours, cell line LTK−, 0.1 nM [8] [%] | proliferation status after 96 hours, cell line LTK−, 1 nM [8] [%] | proliferation status after 96 hours, cell line LTK−, 10 nM [8] [%] | proliferation status after 96 hours, cell line LTK−, 100 nM [8] | IC50 KB/HELA [5] [µg/mL] | IC50 SF-268 [6] [µg/mL]
1 | COc1cccc2c1C(=O)c1c(O)c3c(c(O)c1C2=O)C[C@@](O)(C(=O)CO)C[C@@H]3O[C@H]1C[C@H](N)[C@H](O)[C@H](C)O1 [doxorubicin, reference compound] | 0.105 (≈ 0.193 µM) | 0.347 (≈ 0.638 µM) | 0.082 (≈ 0.151 µM) | 0.124 (≈ 0.228 µM) | 0.32 (≈ 0.589 µM) | 0.305 (≈ 0.561 µM) | – | – | – | – | – | – | – | – | – | – | – | – | – | –
2 | C/C=C/[C@H](OC(=O)CCC(=O)NCCCC[C@H](NC(=O)[C@H](Cc1ccc(O)cc1)NC(=O)[C@H](CO)NC(=O)[C@H](Cc1c[nH]c2ccccc12)NC(=O)[C@H](Cc1cnc[nH]1)NC(=O)[C@@H]1CCC(=O)N1)C(=O)N[C@@H](CC(C)C)C(=O)N[C@@H](CCCNC(=N)N)C(=O)N1CCC[C@H]1C(=O)NCC(N)=O)C(C)(C)[C@@H]1C\C=C/C=C\C=C\[C@H](OC)Cc2nc(co2)C(=O)O[C@H](C(C)(C)[C@H](/C=C/C)OC(=O)CCC(=O)NCCCC[C@H](NC(=O)[C@H](Cc2ccc(O)cc2)NC(=O)[C@H](CO)NC(=O)[C@H](Cc2c[nH]c3ccccc23)NC(=O)[C@H](Cc2cnc[nH]2)NC(=O)[C@@H]2CCC(=O)N2)C(=O)N[C@@H](CC(C)C)C(=O)N[C@@H](CCCNC(=N)N)C(=O)N2CCC[C@H]2C(=O)NCC(N)=O)C/C=C\[C@H]2O[C@H]2/C=C/C=C\c2nc(co2)C(=O)O1 [compound 15, Disorazole A1 Bis Hemi Succinyl [D-Lys^6]LHRH] | – | – | – | – | – | – | >3.16 | >3.16 | 95.1 | 98.6 | 66.6 | 43.0% | ca. 3.16 μg/ml | >3.16 | 108.6 | 111.3 | 108.0 | 101.7% | >3.16 | >3.16
3 | C/C=C/C(OC(=O)CCCC(=O)NCCCC[C@H](NC(=O)[C@H](Cc1ccc(O)cc1)NC(=O)[C@H](CO)NC(=O)[C@H](Cc1c[nH]c2ccccc12)NC(=O)[C@H](Cc1cnc[nH]1)NC(=O)[C@@H]1CCC(=O)N1)C(=O)N[C@@H](CC(C)C)C(=O)N[C@@H](CCCNC(=N)N)C(=O)N1CCC[C@H]1C(=O)NCC(N)=O)C(C)(C(=O)OC)C1C\C=C/C=C/C=C/c2nc(co2)C(=O)OC(C(C)(C(=O)OC)C(/C=C/C)OC(=O)CCCC(=O)NCCCC[C@H](NC(=O)[C@H](Cc2ccc(O)cc2)NC(=O)[C@H](CO)NC(=O)[C@H](Cc2c[nH]c3ccccc23)NC(=O)[C@H](Cc2cnc[nH]2)NC(=O)[C@@H]2CCC(=O)N2)C(=O)N[C@@H](CC(C)C)C(=O)N[C@@H](CCCNC(=N)N)C(=O)N2CCC[C@H]2C(=O)NCC(N)=O)C\C=C/C=C/C=C/c2nc(co2)C(=O)O1 (stereo partly drawn) [compound 17, Disorazole Z Bis Hemi Glutaryl [D-Lys^6]LHRH] | – | – | – | – | – | – | >3.16 | >3.16 | 95.5 | 85.9 | 58.5 | 41.7% | >3.16 µg/mL | >3.16 | 100.9 | 99.8 | 98.8 | 98.0% | >3.16 | >3.16
4 | COc1cccc2c1C(=O)c1c(O)c3c(c(O)c1C2=O)C[C@@](O)(C(=O)COC(=O)CCCC(=O)NCCCC[C@@H](NC(=O)[C@H](Cc1ccc(O)cc1)NC(=O)[C@H](CO)NC(=O)[C@H](Cc1c[nH]c2ccccc12)NC(=O)[C@H](Cc1c[nH]cn1)NC(=O)[C@@H]1CCC(=O)N1)C(=O)N[C@@H](CC(C)C)C(=O)N[C@@H](CCCNC(=N)N)C(=O)N1CCC[C@H]1C(=O)NCC(N)=O)C[C@@H]3O[C@H]1C[C@H](N)[C@H](O)[C@H](C)O1 [AN-152, reference compound] | – | – | – | – | – | – | 0.558 (≈ 0.295 µM) | 1.238 (≈ 0.654 µM) | – | – | – | 43.9% and 42.1% | 0.587 µg/mL (≈ 0.31 µM) | 0.632 (≈ 0.334 µM) | – | – | – | 102.3% and 101.3% | 0.871 (≈ 0.46 µM) | 1.258 (≈ 0.665 µM)
5 | Disorazole E1 Mono Hemi Succinyl [D-Lys^6]LHRH, Both Regio-Isomers [compounds 13/14] | – | – | – | – | – | – | 0.0128 | 0.01685 | – | – | – | – | 0.01724 µg/mL | >3.16 | 98.6 | 98.8 | 93.2 | 27.0% | 0.01891 | 0.05566
